Source: patent publication US20170119776A1, “CHIRAL 2,5-DISUBSTITUTED CYCLOPENTANECARBOXYLIC ACID DERIVATIVES AND USE THEREOF” (BAYER PHARMA AKTIENGESELLSCHAFT, priority 2014, published 2017)

Tests used:
[1] = target: T1, human macrophage elastase (HME/hMMP-12) (Homo sapiens, UniProt P39900); assay: In vitro HME inhibition test in the presence of serum albumin (2% BSA); format: biochemical; settings: presence of serum albumin (BSA, 2% w/w)
T1 construct: 0.5 nM HME; purchased R&D Systems 917-MP
Excerpt: The activity of the compounds according to the invention towards HME (MMP-12) is ascertained in an in vitro inhibition test. The HME-mediated amidolytic cleavage of a suitable peptide substrate leads herein to a fluorescent light increase. The signal intensity of the fluorescent light is directly proportional to the enzyme activity. The active concentration of a test compound at which half of the enzyme is inhibited (50% signal intensity of the fluorescent light) is given as IC50 value.
This test corresponds to the standard HME inhibition test described above, but using a modified reaction buffer. This reaction buffer additionally comprises bovine serum albumin (BSA, fatty acid-free, A6003, Sigma-Aldrich) of a final concentration of 2% (w/w), which corresponds to approximately half of the physiological serum albumin content.
Table 1 below gives the IC50 values from these HME inhibition tests for the working examples of the present invention and also for two structurally related comparison compounds from the prior art (as racemate or separated enantiomers)→(sometimes as average values from several independent individual determinations and rounded to two significant places). The IC50 values were determined for racemates and enantiomers from differently generated DMSO stock solutions. Whereas an automatically created DMSO stock solution from the internal substance logistics was used for racemates by means of a standard method, for enantiomers and for a more precise direct comparison of the enantiomers with one another, in each case a freshly produced, manually prepared DMSO stock solution was used.

[2] = Pharmacokinetic investigations in vivo, dog; settings: Dog (Beagle)
Method: (§1) The substance to be examined is administered to rats, mice or dogs intravenously as a solution (for example in corresponding plasma with a small addition of DMSO or in a PEG/ethanol/water mixture), and peroral administration is effected as a solution (for example in Solutol/ethanol/water or PEG/ethanol/water mixtures) or as a suspension (e.g. in a water/tylose mixture), in each case via a gavage. After administration of the substance, blood is taken from the animals at fixed times. The blood is heparinized, then plasma is obtained therefrom by centrifugation. The test substance is quantified analytically in the plasma via LC-MS/MS. From the plasma concentration/time plots determined in this way, using an internal standard and with the aid of a validated computer program, the pharmacokinetic parameters, such as AUC (area under the concentration/time curve), Cmax (maximum plasma concentration), t1/2 (half life), VSS (distribution volume) and CL (clearance), and the absolute and relative bioavailability F and Frel (i.v./p.o. comparison or comparison of suspension to solution after p.o. administration), are calculated.

[3] = Pharmacokinetic investigations in vivo, rat; settings: Rat (Wistar)
Method: as §1

[4] = Pharmacokinetic investigations in vivo, mouse; settings: Mouse (C57BL/6)
Method: as §1

rat hepatocytes = assay: Hepatocyte assay for determining the metabolic stability; format: in vitro ADME; settings: incubation with rat hepatocytes
Method: (§2) The metabolic stability of test compounds towards hepatocytes is determined by incubating the compounds at low concentrations (preferably below or around 1 μM) and at low cell counts (preferably at 1*10^6 cells/ml) in order to ensure the greatest possible linear kinetic conditions in the experiment. Seven samples from the incubation solution are removed within a stipulated time frame for the LC-MS analysis in order to determine the half life (i.e. the degradation) of the particular compound. This half life is used to calculate various “Clearance” parameters (CL) and “Fmax” values (see below).
(§3) The CL and Fmax values are a measure of the phase 1 and phase 2 metabolism of the compounds in the hepatocytes. In order to keep the influence of the organic solvent on the enzymes in the incubation mixtures as low as possible, its concentration is generally limited to 1% (acetonitrile) or 0.1% (DMSO).
(§4) For all species and races, a hepatocyte cell count in the liver of 1.1*10^8 cells/g of liver is estimated.
(§5) The calculated parameters and their meaning are: • Fmax well-stirred [%] Maximum possible bioavailability following oral application
(§6) Calculation: (1−CLblood well-stirred/QH)*100 • CLblood well-stirred [L/(h*kg)] Calculated blood clearance (well stirred model) […]

[5] = as above; format: in vitro ADME; settings: incubation with rat hepatocytes; read-out: Fmax (maximum possible bioavailability, well-stirred)
Method: as §2, §3, §4, §5, §6

[6] = plasma, iv, read-out: CLPlasma CLblood (converted)
[7] = plasma, po, p.o., read-out: t1/2 p.o. (converted)

T1 sequence (P39900 106-470): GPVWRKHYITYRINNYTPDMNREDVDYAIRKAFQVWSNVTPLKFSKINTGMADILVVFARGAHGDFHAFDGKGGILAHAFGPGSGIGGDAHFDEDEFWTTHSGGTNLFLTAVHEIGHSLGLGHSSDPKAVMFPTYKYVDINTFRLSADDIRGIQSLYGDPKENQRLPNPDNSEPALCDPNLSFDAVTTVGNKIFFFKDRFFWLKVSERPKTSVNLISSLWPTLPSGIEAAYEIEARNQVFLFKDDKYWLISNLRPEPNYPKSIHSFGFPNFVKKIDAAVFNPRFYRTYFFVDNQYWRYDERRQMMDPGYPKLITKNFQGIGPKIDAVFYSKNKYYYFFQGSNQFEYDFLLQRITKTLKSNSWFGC

Q: For `CCCCCOc1ccc(C(=O)CC(CCn2nnc3ccccc3c2=O)C(=O)O)cc1` (single isomer, unassigned; enantiomer 1) [Comparative Example B-2, (+)-4-Oxo-2-[2-(4-oxo-1,2,3-benzotriazin-3(4H)-yl)ethyl]-4-[4-(pentyloxy)phenyl]butanoic acid (enantiomer 1)], which IC50 [1] is on record?
A: 170 nM

Q: For `O=C(O)[C@@H]1[C@@H](Cn2nnc3ccccc3c2=O)CC[C@H]1C(=O)c1ccc(-c2ccc(Cl)cc2)cc1` (single isomer, unassigned; enantiomer 2) [Comparative Example A-3, (1RS,2RS,5SR)-2-[(4′-Chlorobiphenyl-4-yl)carbonyl]-5-[(4-oxo-1,2,3-benzotriazin-3(4H)-yl)methyl]cyclopentanecarboxylic acid (enantiomer 2)], which IC50 [1] is on record?
A: 5.4 nM

Q: Which results are given for `O=C(O)[C@H]1[C@H](Cn2nnc3ccccc3c2=O)CC[C@@H]1C(=O)c1ccc(OCc2ccccc2)cc1` [Example 2, (+)-(1S,2S,5R)-2-[4-(Benzyloxy)benzoyl]-5-[(4-oxo-1,2,3-benzotriazin-3(4H)-yl)methyl]cyclopentanecarboxylic acid]?
A: F ([2]; bioavailability from solution): 100%; AUCnorm i.v. ([2]; i.v.): 10.6 kg·h/L; clearance [2, 6]: 1.57 mL/min/kg; half-life [2, 7]: 14.4 h; F ([3]; bioavailability from solution): 100%; AUCnorm i.v. ([3]; i.v.): 93.6 kg·h/L; Frel ([3]; suspension vs solution p.o.): 97%; clearance [3, 6]: 0.183 mL/min/kg; half-life [3, 7]: 8.4 h; F ([4]; bioavailability from solution): 84%; AUCnorm i.v. ([4]; i.v.): 44.6 kg·h/L; clearance [4, 6]: 0.367 mL/min/kg; half-life [4, 7]: 5 h; IC50 [1]: 8.4 nM; CLblood (calculated blood clearance, well-stirred) (rat hepatocytes): 10.8 mL/min/kg; bioavailability [5]: 84.4%
